Reference: patent publication US20070117776A1, “Low Dose Therapy Of DNA Methylation Inhibitors” (priority 2005, published 2007)

Tests used:
[1] = system: intermediate and high-risk MDS and CMML; test: Randomized low dose decitabine schedules in patients with hematological disorders; format: in vivo, human
Description: Patients with intermediate and high-risk MDS and CMML were randomized to one of three decitabine schedules: (1) 20 mg/m^2 infused intravenously over 1 hour, once daily, for five days; (2) 10 mg/m^2, infused intravenously over one hour, once daily, for ten days; (3) 10 mg/m^2, injected subcutaneously twice a day, for five days.
Decitabine was supplied as a lyophilized powder, 50 mg in 20 mL glass vials, for reconstitution with 10 mL sterile water (Supergen, Inc., Dublin Calif., through Pharmachemie B.V., Haarlem, The Netherlands). The reconstituted stock solution contained 5 mg/mL decitabine, 6.8 mg KH2PO4, and approximately 1.1 mg/mL NaOH. The reconstituted solution was further diluted for intravenous infusion or subcutaneous injection with pharmaceutically acceptable cold infusion fluids (physiological saline, glucose-saline, lactated Ringer's solution). The time delay between preparation of the infusion/injection solution was kept as short as practicable, with refrigerated storage prior to administration not to exceed 4-5 hours.
Patients received one course of treatment (as defined above) every 28 days. […] Patients were allowed 40,000 units of erythropoietin weekly for anemia, or GCSF if needed.
The age of 92 treated patients ranged from 31-90 years (median: 65, with 66% of patients being older than 60); according to IPSS prognostic scores, 25% of patients were classified as intermediate-1, 38% as intermediate-2, 19% as high risk, and 17% as having chronic myelomonocytic leukemia (CMML). […] Twenty-seven patients had had prior erythropoietin; 17 had had prior GCSF, and 22 had had other prior therapies.

cytidine deaminases = details: enzymatic degradation by cytidine deaminases, particularly in the small intestine; cited from earlier work
[2] = all three schedules, 92 treated patients

In the case of `Nc1ncn([C@H]2C[C@H](O)[C@@H](CO)O2)c(=O)n1` [Decitabine, 4-amino-1-(2-deoxy-β-D-erythro-pentofuranosyl)-1,3,5-triazin-2(1H)-one], the comparison of schedules ([1]; 5-day IV arm versus the other arms, after 55 patients were randomized) is reported as “statistically superior”, the “complete remission (patients with CR/patients treated)” value ([1]; 5-day IV courses: 20 mg/m^2 infused intravenously over 1 hour, once daily, for five days) is reported as 24/57 and the “complete remission (patients with CR/patients treated)” value ([1]; 5-day subcutaneous courses: 10 mg/m^2 injected subcutaneously twice a day, for five days) is reported as 4/14. The myelosuppression ([1]; 10-day IV cohort (10 mg/m^2 over one hour, once daily, ten days) compared with the other schedules) was “more myelosuppression”, the “complete remission (patients with CR/patients treated)” value ([1]; 10-day IV courses: 10 mg/m^2 infused intravenously over one hour, once daily, for ten days) was 4/17 and the “CB combined with bone marrow CR” value [1, 2] was “Thirteen”. For the same molecule, the “Partial remission (PR)” value [1, 2] was “seven”, the “clinical benefit (CB)” value [1, 2] was “Sixteen” and the “complete remission (CR)” value [1, 2] was 32 patients. For the same molecule, the “number of treatment courses in patients who achieved CR (median)” value ([1]; one course every 28 days) was 3, the “number of treatment courses in patients who achieved CR (range)” value ([1]; one course every 28 days) was “one to six” and the “patients who showed a response (overall)” value ([1]; patients who received at least one course of treatment) was 76%. For the same molecule, the oral bioavailability (cytidine deaminases) was “reduced oral bioavailability”.
